Key:
[1] = biological target: T1, Protein farnesyltransferase (Homo sapiens, UniProt P49354+P49356); assay: Inhibitory activity against human farnesyltransferase; assay type: protein-complex assay
[2] = biological target: T1, Protein farnesyltransferase; assay: Inhibitory activity in COS cell Ha-Ras processing assay; assay type: functional, cell-based, Chlorocebus aethiops

| Compound | IC50 [1] [nM] | IC50 [2] [nM] |
| --- | --- | --- |
| O=C(NCc1cccnc1)C1CN(C2c3ccc(Cl)cc3CCc3cc(Br)cnc32)CCN1C(=O)CCc1ccccc1 (stereo not drawn) | 30 |  |
| O=C(CC1CN(C2c3ccc(Cl)cc3CCc3cc(Br)cnc32)CCN1C(=O)Cc1ccncc1)NC1CC1 (stereo not drawn) | 70 |  |
| CNC(=O)C1CN(C2c3ccc(Cl)cc3CCc3cc(Br)cnc32)CCN1C(=O)Cc1ccc(Cl)cc1 (stereo not drawn) | 100 |  |
| O=C(NCc1cccnc1)C1CCCN(C2c3ccc(Cl)cc3CCc3cc(Br)cnc32)C1 (stereo not drawn) | 120 | 2000 |
| O=C(NCC1CC1)C1CN(C2c3ccc(Cl)cc3CCc3cc(Br)cnc32)CCN1C(=O)Cc1ccncc1 (stereo not drawn) | 50 |  |
| O=C(CC1CN(C2c3ccc(Cl)cc3CCc3cc(Br)cnc32)CCN1C(=O)CCc1ccccc1)NCc1cccnc1 (stereo not drawn) | 960 | 2000 |

Reference: ChEMBL document CHEMBL1141236, “Surfing the piperazine core of tricyclic farnesyltransferase inhibitors” (Bioorg Med Chem Lett, 2005)
